By Ki is commonly meant the dissociation constant of the complex between target and ligand, obtained from inhibition or displacement. Lower therefore signals tighter binding.

Results on 27 compounds are retold here after BindingDB's records for doi:10.1021/jm970326r (University of Minnesota, 1998).

For assay [1], the target named is Sigma non-opioid intracellular receptor 1 (Cavia porcellus) (UniProt Q60492). The assay can be described thus: Sigma-1 binding assay was done in guinea pig membranes by labeling the binding site with [3H](+)-pentazocine.
The nature of assay [2]: Sigma-1 binding assay was done in guinea pig membranes by labeling the binding site with [3H](+)-pentazocine.
The target of assay [3] is Vesicular acetylcholine transporter (Torpedo). The assay can be described thus: Binding to vesicular acetylcholine transporter of torpedo synaptic vesicles.

Chain of Sigma non-opioid intracellular receptor 1 (Cavia porcellus) (Q60492 whole entry, looked up): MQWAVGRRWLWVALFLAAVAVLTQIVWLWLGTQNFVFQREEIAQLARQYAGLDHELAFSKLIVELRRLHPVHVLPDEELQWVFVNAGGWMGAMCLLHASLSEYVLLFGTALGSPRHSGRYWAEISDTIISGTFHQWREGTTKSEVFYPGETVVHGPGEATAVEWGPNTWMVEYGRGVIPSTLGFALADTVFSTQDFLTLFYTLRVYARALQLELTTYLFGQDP

Consider `O=C(CCCN1C2CCC1CC(c1ccccc1)C2)c1ccc(F)cc1` (stereo not given), for which the inhibition constant (Ki) in assay [1] was determined as 34.1 nM.
The same measure, in the same setting: the value for `OC(CN1C2CCC1CC(c1ccccc1)C2)c1c(Cl)cccc1Cl` (stereo not given) [1-(2,6-Dichloro-phenyl)-2-(3-phenyl-8-aza-bicyclo[3.2.1]oct-8-yl)-ethanol] was 302 nM.
Turning to `OC(CN1C2CCC1CC(c1ccccc1)C2)c1ccccc1Br` (stereo not given) [1-(2-Bromo-phenyl)-2-(3-phenyl-8-aza-bicyclo[3.2.1]oct-8-yl)-ethanol], the values for the inhibition constant Ki in assay [2] and in assay [3] were 95.7 nM and 130 nM, respectively.
For `OC(CN1C2CCC1CC(c1ccccc1)C2)c1ccc(Cl)c(Cl)c1` (stereo not given) [1-(3,4-Dichloro-phenyl)-2-(3-phenyl-8-aza-bicyclo[3.2.1]oct-8-yl)-ethanol], the Ki in assay [1] was 249 nM; in assay [3] it was 60 nM.
In the case of `OC(CN1C2CCC1CC(c1ccccc1)C2)c1cccc(Br)c1` (stereo not given) [1-(3-Bromo-phenyl)-2-(3-phenyl-8-aza-bicyclo[3.2.1]oct-8-yl)-ethanol], affinity in assay [1] was put at a Ki of 117 nM.
Consider `CN1CC2(CCN([C@@H]3CN(Cc4cccc(I)c4)CC[C@H]3O)CC2)c2ccccc21` [1-(3-Iodobenzyl)-3-[1-methylspiro[2,3-dihydro-1H-indole-3,4'-(hexahydropyridine)]-1-yl]-(3R,4R)-hexahydro-4-pyridinol], for which the inhibition constant (Ki) in assay [1] is 122 nM; in assay [3] it was 17 nM.
On to `O[C@@H]1CCN(Cc2cccc(I)c2)C[C@H]1N1CCC2(CCc3ccccc32)CC1` [1-(3-iodobenzyl)-3-spiro[2,3-dihydro-1H-indene-1,4'-(hexahydropyridine)]-1-yl-(3R,4R)-hexahydro-4-pyridinol], for which the inhibition constant Ki in assay [1] was determined as 283 nM.
As for `OC(CN1C2CCC1CC(c1ccccc1)C2)c1ccc(Br)cc1` (stereo not given) [1-(4-Bromo-phenyl)-2-(3-phenyl-8-aza-bicyclo[3.2.1]oct-8-yl)-ethanol], the results for the Ki in assay [1] and in assay [3] were 17.5 nM and 144 nM, respectively.
With `OC(CN1CCC(c2ccccc2)CC1)c1ccc(Br)cc1` (stereo not given) [1-(4-Bromo-phenyl)-2-(4-phenyl-piperidin-1-yl)-ethanol], in assay [3], the inhibition constant Ki came out at 30 nM.
For the compound `OC(Cc1ccc(Br)cc1)CN1C2CCC1CC(c1ccccc1)C2` (stereo not given) [1-(4-Bromo-phenyl)-3-(3-phenyl-8-aza-bicyclo[3.2.1]oct-8-yl)-propan-2-ol], the affinity in assay [1], expressed as Ki, was 30.9 nM.
`O=C(CN1C2CCC1CC(c1ccccc1)C2)c1ccc(F)cc1` (stereo not given) [1-(4-Fluoro-phenyl)-2-(3-phenyl-8-aza-bicyclo[3.2.1]oct-8-yl)-ethanone]: the inhibition constant (Ki) in assay [1] came to 281 nM; in assay [3], 3400 nM.
`OC(CCCN1C2CCC1CC(c1ccccc1)C2)c1ccc(F)cc1` (stereo not given) [1-(4-Fluoro-phenyl)-4-(3-phenyl-8-aza-bicyclo[3.2.1]oct-8-yl)-butan-1-ol]: the Ki in assay [3] is 380 nM.
Turning to `O[C@@H]1CCN(Cc2ccc(F)cc2)C[C@H]1N1CCC2(CCc3ccccc32)CC1` [1-(4-fluorobenzyl)-3-spiro[2,3-dihydro-1H-indene-1,4'-(hexahydropyridine)]-1-yl-(3R,4R)-hexahydro-4-pyridinol], the inhibition constant Ki in assay [1] came to 25 nM; in assay [3], 0.36 nM.
For `CN1CC2(CCN(CCCC(=O)c3ccc(F)cc3)CC2)c2ccccc21` [1-(4-fluorophenyl)-4-[1-methylspiro[2,3-dihydro-1H-indole-3,4'-(hexahydropyridine)]-1-yl]-1-butanone], the inhibition constant (Ki) in assay [1] is 110 nM.
On the same count and under the same terms, then `O=C(CCCN1CCC2(CCc3ccccc32)CC1)c1ccc(F)cc1` [1-(4-fluorophenyl)-4-spiro[2,3-dihydro-1H-indene-1,4'-(hexahydropyridine)]-1-yl-1-butanone], with 1.8 nM.
Turning to `OC(CN1C2CCC1CC(c1ccccc1)C2)c1ccccc1` (stereo not given) [1-Phenyl-2-(3-phenyl-8-aza-bicyclo[3.2.1]oct-8-yl)-ethanol], the Ki in assay [3] came to 474 nM.
On the same count and under the same terms, the value for `O[C@@H]1Cc2ccccc2C[C@H]1N1CCC2(CCc3ccccc32)CC1` [3-spiro[2,3-dihydro-1H-indene-1,4'-(hexahydropyridine)]-1-yl-(2R,3R)-1,2,3,4-tetrahydro-2-naphthalenol] was 0.36 nM.
With `CN1CC2(CCN(C[C@H](O)c3cccc(Br)c3)CC2)c2ccccc21` [(1R)-1-(3-bromophenyl)-2-(1-methyl-1,2-dihydro-1'H-spiro[indole-3,4'-piperidin]-1'-yl)ethanol], the Ki in assay [1] came to 518 nM; in assay [3], 182 nM.
As to `O[C@@H](CN1CCC2(CCc3ccccc32)CC1)c1cccc(Br)c1` [(1R)-1-(3-bromophenyl)-2-(2,3-dihydro-1'H-spiro[indene-1,4'-piperidin]-1'-yl)ethanol], the inhibitory constant (Ki) came out at 107 nM in assay [1] and 600 nM in assay [3].
The matching figures for `CN1CC2(CCN([C@@H]3CCCC[C@H]3O)CC2)c2ccccc21` [(1R,2R)-2-(1-methyl-1,2-dihydro-1'H-spiro[indole-3,4'-piperidin]-1'-yl)cyclohexanol]: 286 nM and 74 nM.
The like results for `O[C@@H]1CCCC[C@H]1N1CCC2(CCc3ccccc32)CC1` [(1R,2R)-2-(2,3-dihydro-1'H-spiro[indene-1,4'-piperidin]-1'-yl)cyclohexanol] were, in that order, 21 nM and 7.6 nM.
As to `O[C@H]1CCCC[C@@H]1N1C2CCC1CC(c1ccccc1)C2` (stereo partly drawn) [(1S,2S)-2-(3-Phenyl-8-aza-bicyclo[3.2.1]oct-8-yl)-cyclohexanol], the Ki in assay [1] was 380 nM.
Consider `CN1CC2(CCN(C[C@H](O)Cc3ccc(Br)cc3)CC2)c2ccccc21` [(2R)-1-(4-bromophenyl)-3-{1-methyl-1,2-dihydrospiro[indole-3,4'-piperidine]-1'-yl}propan-2-ol], for which the Ki in assay [1] was 191 nM; in assay [3], 420 nM.
In turn, `O[C@H](Cc1ccc(Br)cc1)CN1CCC2(CCc3ccccc32)CC1` [(2R)-1-(4-bromophenyl)-3-{2,3-dihydrospiro[indene-1,4'-piperidine]-1'-yl}propan-2-ol] yielded an inhibition constant (Ki) in assay [3] of 86 nM.
Regarding `O[C@H]1Cc2ccccc2C[C@@H]1N1C2CCC1CC(c1ccccc1)C2` (stereo partly drawn) [(2S,3S)-3-(3-Phenyl-8-aza-bicyclo[3.2.1]oct-8-yl)-1,2,3,4-tetrahydro-naphthalen-2-ol], the inhibition constant (Ki) was determined as 175 nM in assay [1] and 8.5 nM in assay [3].
Turning to `O[C@H]1CCN(Cc2cccc(I)c2)C[C@@H]1N1C2CCC1CC(c1ccccc1)C2` (stereo partly drawn) [(3S,4S)-1-(3-Iodo-benzyl)-3-(3-phenyl-8-aza-bicyclo[3.2.1]oct-8-yl)-piperidin-4-ol], in assay [1], affinity was put at a Ki of 194 nM.
For the compound `O[C@H]1CCN(Cc2ccc(F)cc2)C[C@@H]1N1C2CCC1CC(c1ccccc1)C2` (stereo partly drawn) [(3S,4S)-1-(4-Fluoro-benzyl)-3-(3-phenyl-8-aza-bicyclo[3.2.1]oct-8-yl)-piperidin-4-ol], the values for the Ki in assay [1] and in assay [3] were 240 nM and 325 nM, respectively.
